Measurements taken from article PMC5845537 (Frontiers in Pharmacology, 2018).
Where two headings read alike, the source gives them in different places.

Tests used:
GABAA receptor = experiment: Ex vivo autoradiography, GABAA receptor saturation binding ([3H]muscimol), medial prefrontal cortex; set-up: species or system rat; settings: PCP/vortioxetine group vs all other treatment groups
Text: Rats used in ex vivo autoradiography (EVA) experiments were randomly assigned to one of four experimental groups characterized by either subchronic saline or PCP (as described above) along with either vehicle or vortioxetine-infused food (1.8 g vortioxetine/kg food weight, as described in the attentional set shifting task). On day 8 of PCP withdrawal, rats were anesthetized using CO2 and killed by decapitation. Brains were quickly and gently removed from the skull, flash frozen on powdered dry ice, and stored at -20°C until sectioning. Later, 12 μm coronal sections were collected from an area ranging from approximately +4.2 mm to +2.3 mm anterior to Bregma ([Paxinos and Watson, 1998]) using a cryostat (MicroM, Germany) and were thaw-mounted on glass microscope slides. This range of coronal slices was chosen in order to study the prelimbic and infralimbic subregions of the medial prefrontal cortex, given the importance of these regions in tests of executive function such as the attentional set shifting task ([Ng et al., 2007]). After the tissue mounted on the microscope slides had dried thoroughly (in order to reduce damage from freezing), slides were packed into slide boxes with desiccator pellets, and stored at -20°C for use in EVA saturation binding and competition experiments.
Each of the EVA procedures used in this study are variations on a similar theme. On the day of an experiment, slide-boxes were defrosted under a constant stream of air at room temperature until the boxes were dry and equilibrated with the environment in terms of temperature. This step was undertaken in order to ensure brain tissue was not damaged by frosting due to a sudden change in humidity. Prior to any binding experiments, slides were preincubated in the appropriate preincubation buffer and dried at room temperature. Subsequently, tissue was incubated in an assay buffer containing a radioligand appropriate for the receptor of interest, then rinsed in assay buffer, and dried overnight in a vacuum desiccator. Specific information on the contents of the preincubation buffers, assay buffers and other assay conditions are listed in Table 2. Finally, slides were opposed to a tritium-sensitive phosphor screen (Fuji imaging plate, GE Healthcare, Pittsburgh, PA, United States) for 5 days before being read in a phosphorimager (Typhoon FLA7000, GE Healthcare). Analysis methods are listed below under statistical analyses.
In saturation binding experiments, the concentration of the relevant radioligand in the assay buffer was systematically varied in order to determine the KD and Bmax of the receptor in question. At each radioligand concentration, the non-specific binding was determined on a separate slide by including a high concentration of a non-radioactive competitor ligand in the assay buffer along with the radioligand. For GABAA receptor saturation binding experiments, [^3H]muscimol was examined in quarter log steps ranging from 0.56 to 300 nM. For GABAB receptor saturation binding experiments, [^3H]CGP54626 was examined in quarter log steps ranging from 0.17 to 100 nM.
For saturation binding studies, the primary dependent measures were pKD and Bmax. […] A linear regression was performed to determine the relationship between intensity and bound radioactivity (measured on the standards in units of μCi/g). […] These optical intensity values were transformed into bound radioactivity (expressed as nCi/mg) measurements by interpolation from the standard curve noted above. […]

SERT = settings: cited from earlier work
5-HT3 receptor = settings: 2014, cited from earlier work
5-HT1B receptors = settings: 2014, cited from earlier work
5-HT1A receptors = settings: 2014, cited from earlier work
5-HT7 receptors = settings: 2014, cited from earlier work
rodent 5-HT1A receptors = settings: rodent vs human; no reference given; cited from earlier work
rodent 5-HT7 receptors = settings: rodent vs human; no reference given; cited from earlier work
[1] = 10 mg/kg 1 h s.c., full occupancy, ref Leiser et al.
[2] = subchronic dose used in the mouse OR and object placement tasks, ref Wallace et al., Waller et al., 2017
[3] = 10 mg/kg 1 h s.c., ref Leiser et al.
[4] = subchronic dose used in the mouse OR and object placement tasks, expected, ref Wallace et al., Waller et al., 2017

effect of treatment on [3H]muscimol affinity for the GABAA receptor (GABAA receptor): small but significant reduction
SMILES: Cc1ccc(Sc2ccccc2N2CCNCC2)c(C)c1 [vortioxetine]
occupancy at the SERT (SERT; 1 mg/kg acute dose, ref Leiser et al., 2014): 60–65% | occupancy at SERT (SERT; 10 mg/kg 1 h s.c., full occupancy, ref Leiser et al., 2014): ≥ 80% | occupancy at the SERT (SERT; 0.22 g/kg subchronic dose (food), ref Waller et al., 2017): approximately 50% | occupancy at SERT (SERT; subchronic dose used in the mouse OR and object placement tasks, ref Wallace et al., 2014, Waller et al., 2017): full occupancy | SERT occupancy (SERT; the vortioxetine doses used, ref Stenkrona et al., 2013, Leiser et al., 2014): 50–90% | occupancy at the 5-HT3 receptor (5-HT3 receptor; 1 mg/kg acute dose, ref Leiser et al.): full occupancy | occupancy at 5-HT3 receptors (5-HT3 receptor; [1]): ≥ 80% | occupancy at 5-HT3 receptors (5-HT3 receptor; [2]): full occupancy | occupancy at 5-HT1B receptors (5-HT1B receptors; [1]): ≥ 80% | occupancy at 5-HT1B receptors (5-HT1B receptors; [2]): approximately 50% | occupancy at 5-HT1A receptors (5-HT1A receptors; [3]): ≈ 40% | occupancy at 5-HT1A receptors (5-HT1A receptors; [4]): negligible | occupancy at 5-HT7 receptors (5-HT7 receptors; [3]): ≈ 40% | occupancy at 5-HT7 receptors (5-HT7 receptors; [4]): negligible | lesser affinity at rodent 5-HT1A receptors by comparison to humans (rodent 5-HT1A receptors): approximately 10 fold | lesser affinity at rodent 5-HT7 receptors by comparison to humans (rodent 5-HT7 receptors): approximately 10 fold
